Measured values reported in patent publication US20210018841A1, “COMPOSITION FOR RESIST UNDERLAYER FILM FORMATION AND PATTERN FORMATION METHOD” (Mitsubishi Gas Chemical Company, Inc., priority 2018, published 2021).

Test: Solubility in a safe solvent (PGMEA)
Type: physicochemical
Details: ultrasonic waves at 23° C. for 30 minutes, visually observed
Protocol: The solubility of an obtained compound in a safe solvent (propylene glycol monomethyl ether acetate (PGMEA)) was evaluated as follows. The compound was precisely weighed in a test tube, and PGMEA was added to a predetermined concentration. Next, ultrasonic waves were applied at 23° C. for 30 minutes with an ultrasonic cleaning machine, and the subsequent state of the liquid was visually observed. The concentration (% by mass) at which the compound was completely dissolved was defined as the amount of dissolution. […] B: amount of dissolution was 3.0% by mass or more and 5.0% by mass or less. C: amount of dissolution was less than 3.0% by mass.

CCO[Te](OCC)(OCC)OCC [TOX-1, tetraethoxytellurium(IV)]
Solubility of tellurium containing compound: A (amount of dissolution was 5.0% by mass or more)
